# Source: patent US20130197023A1, “NEUROPROTECTION BY PHARMACOLOGICAL CHAPERONING OF NICOTINIC ACETYLCHOLINE RECEPTORS” (priority 2012, published 2013)
# Legend:
# [1] = target: T1, α4-eGFPβ2-wt nAChRs (Mus musculus, UniProt O70174+Q9ERK7); format: cell-based
# T1 construct: expressed in transfected cells; host or cells: mouse Neuro-2a cells
# Experimental: Neuro-2a cells were plated on 12 mm glass coverslips within 35 mm plastic bottom cell culture dishes. The following day, cells were transfected with 500 ng α4-eGFP and 500 ng β2-wt nAChR subunits. 24 to 48 hr later, glass coverslips were transferred to dishes on the microscope stage. Green fluorescence was visualized with an upright microscope (BX50WI, Olympus) and UV illumination with appropriate excitation filters. Agonist-induced currents were tested at a holding potential of −65 mV using a focal, relatively rapid drug application system designed to minimize desensitization (Xiao et al., 2009). We applied drugs from the lowest to highest concentration at 3 min intervals to minimize desensitization. Whole-cell patch-clamp recordings were with a MultiClamp 700B amplifier, a 1322 analog-to-digital converter, and pCLAMP 9.2 software (all from Axon Instruments, Molecular Devices). Data were sampled at 10 kHz and filtered at 2 kHz.
# The intrapipette solution contained (in mM): 135 potassium gluconate, 5 KCl, 5 EGTA, 0.5 CaCl2, 10 HEPES, 2 Mg-ATP, and 0.1 GTP; the pH was adjusted to 7.2 with Tris base and the osmolarity to 300 mOsm with sucrose. The extracellular solution contained (in mM): 140 NaCl, 5 KCl, 2 CaCl2, 1 MgCl2, 10 HEPES, and 10 glucose; pH was adjusted to 7.3 with Tris base. The Nernst potential for Cl^− in the intrapipette solution is −82.9 mV. The bath was continuously perfused with extracellular solution (ECS) at room temperature (23±1° C.). The patch electrodes had resistances of 5 to 8 MΩ. The junction potential between the patch pipette and the bath solutions was nulled just before forming a gΩ seal. Series resistance was monitored and compensated by 70-80% throughout recordings. The data were ignored if the series resistance (15-30 MΩ) changed by >20% during the recording session.
# [2] = test system: Neuro-2a cells; format: cell-based, mouse
# Experimental: (§1) Neuro-2a cells were transfected with α4-eGFP (500 ng)+β2wt (500 ng)+GaIT-mcherry (250 ng) or pDSred2-ER (100 ng) and cells were incubated for 48 h with appropriate concentrations of nicotine, cytisine or DHβE.
# Two color fluorescence signals were separated with a dichroic and optical filters aligned in the emission path where green and red emission was separately aligned to the two halves of an EMCCD. Post-acquisition processing of images used Metamorph to demarcate TGN bodies and to extract number, size and intensity statistics.
# [3] = test system: Neuro-2a cells; format: cell-based, mouse; remark: listed apart in the source
# Experimental: as §1
# In ImageJ, background was subtracted, and DSred2-ER fluorescence was thresholded and demarcated for each cell.
# [4] = test system: ER exit sites (ERES); format: cell-based, mouse
# Experimental: (§2) Mouse Neuro-2a cells were cultured using standard tissue culture techniques and maintained in 45% DMEM, 45% OptiMEM and 10% FBS. Plasmid concentrations used for transfection were as follows: 500 ng of each nAChR subunit, 75 ng of pCS2-mcherry, 250 ng of Sec24D constructs, 100 ng of pDsRed2-ER, 250 ng of GaIT-eCFP and 500 ng of ATF6-eGFP. 90,000 cells were plated in poly-D-lysine coated 35 mm MatTek glass bottom imaging dishes. The following day, plasmid DNA was mixed with cationic lipids by adding appropriate DNA concentrations to 4 μl of Expressfect transfection reagent in 200 μl DMEM final volume and incubated for 20 min at room temperature to form cationic lipid-DNA complexes. DMEM+DNA-lipid complexes were added to Neuro-2a cells in 1 ml of DMEM+10% FBS and incubated at 37° C. for 4 h. Dishes were rinsed 2× with DMEM, then filled with 3 ml of DMEM+10% FBS and incubated at 37° C. for 48 h. Nicotine, cytisine or DHβE was added at appropriate concentrations during the change of medium following 4 h incubation with Expressfect-plasmid DNA complexes.
# Neuro-2a cells were co-transfected with 500 ng each of α4-mcherry and β2-wt nAChR subunits and 250 ng of the ERES marker, Sec24D-eGFP. Each cell was focused to a plane where the maximum ERES were visualized. Sequential images of eGFP and mcherry fluorescence were obtained and linearly unmixed. For quantification, ERES regions of interest (ROIs) were demarcated using intensity-based thresholding and counted for each cell using the particle analysis feature in ImageJ version 1.44 or later. The fluorescence intensity was obtained for each ERES body within the cells and average ERES intensity was plotted. Error bars for ERES measurements are ±standard error of mean (SEM) and p values are based on a 2-tailed t test.
# [5] = test system: ATF6; format: cell-based, mouse
# Experimental: as §2
# [6] = target: α4β2 nAChRs (Mus musculus, UniProt O70174+Q9ERK7); conditions: chronic nicotine, 200 nM for 24 hr
# α4β2 nAChRs, sequence (O70174 31-629): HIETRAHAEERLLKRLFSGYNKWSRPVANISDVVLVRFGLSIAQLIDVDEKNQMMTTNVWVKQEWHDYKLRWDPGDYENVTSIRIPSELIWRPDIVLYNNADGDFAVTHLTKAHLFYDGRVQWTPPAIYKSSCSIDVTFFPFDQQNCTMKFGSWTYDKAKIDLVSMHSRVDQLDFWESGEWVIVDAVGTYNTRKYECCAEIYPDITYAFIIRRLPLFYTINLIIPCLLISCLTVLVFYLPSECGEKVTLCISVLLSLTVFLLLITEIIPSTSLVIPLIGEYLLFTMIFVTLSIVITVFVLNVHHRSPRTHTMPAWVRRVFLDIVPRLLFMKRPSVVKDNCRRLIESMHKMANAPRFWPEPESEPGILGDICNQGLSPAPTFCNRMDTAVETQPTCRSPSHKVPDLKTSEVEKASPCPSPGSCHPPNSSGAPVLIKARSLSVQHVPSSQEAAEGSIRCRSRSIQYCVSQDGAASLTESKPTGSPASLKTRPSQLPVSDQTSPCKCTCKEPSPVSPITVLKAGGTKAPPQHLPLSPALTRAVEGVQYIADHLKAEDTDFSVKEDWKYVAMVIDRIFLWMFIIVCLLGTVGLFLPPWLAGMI
# α4β2 nAChRs, sequence (Q9ERK7 26-501): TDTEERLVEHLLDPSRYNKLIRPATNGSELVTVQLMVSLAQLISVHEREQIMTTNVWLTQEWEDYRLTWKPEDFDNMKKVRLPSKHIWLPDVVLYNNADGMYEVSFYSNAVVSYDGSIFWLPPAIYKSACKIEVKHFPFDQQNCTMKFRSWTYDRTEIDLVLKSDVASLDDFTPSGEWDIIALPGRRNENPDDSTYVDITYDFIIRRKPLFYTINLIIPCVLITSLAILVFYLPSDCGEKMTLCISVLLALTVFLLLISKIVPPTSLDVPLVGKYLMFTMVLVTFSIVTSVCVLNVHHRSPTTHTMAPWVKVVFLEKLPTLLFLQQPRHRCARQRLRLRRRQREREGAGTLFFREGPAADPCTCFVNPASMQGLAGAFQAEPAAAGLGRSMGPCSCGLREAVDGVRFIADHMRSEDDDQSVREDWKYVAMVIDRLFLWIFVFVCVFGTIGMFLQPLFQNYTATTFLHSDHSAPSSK
# Description: We used superecliptic phluorin (SEP) fused to the C-terminus of alpha4 nicotinic receptors (nAChRs) to examine the subcellular distribution and trafficking dynamics of receptors expressed in cortical neurons. SEP is a pH-sensitive version of green fluorescent protein (GFP) that undergoes 488 nm excitation at neutral pH (˜7.4), but loses this excitation maximum under acidic conditions (12). As a result, SEP neither photobleaches nor fluoresces at low pH but regains its fluorescence at neutral and basic pH. Tagging of α4 on the extracellular C-terminus results in the orientation of SEP on the lumenal side of most organelle types in the secretory pathway. While the endoplasmic reticulum (ER) and cis-Golgi have lumenal pH of ˜7.2 and ˜6.7, respectively, the lumen of both the trans-Golgi network and secretory vesicles is much more acidic (pH<6.5) (39). If one illuminates via total internal reflection (TIRF) microscopy, only those receptors resident in nearly neutral organelles close to the plasma membrane, or inserted in the plasma membrane, are visible within the excitation field. Thus, receptors in the later stages of the secretory pathway neither fluoresce nor photobleach due to the acidic environment. […]
# [7] = target: α4β4 receptors (Mus musculus, UniProt O70174+Q8R493); conditions: acute nicotine, 1 μM
# α4β4 receptors, sequence (O70174 31-629): as the sequence (O70174 31-629) above
# α4β4 receptors, sequence (Q8R493 21-495): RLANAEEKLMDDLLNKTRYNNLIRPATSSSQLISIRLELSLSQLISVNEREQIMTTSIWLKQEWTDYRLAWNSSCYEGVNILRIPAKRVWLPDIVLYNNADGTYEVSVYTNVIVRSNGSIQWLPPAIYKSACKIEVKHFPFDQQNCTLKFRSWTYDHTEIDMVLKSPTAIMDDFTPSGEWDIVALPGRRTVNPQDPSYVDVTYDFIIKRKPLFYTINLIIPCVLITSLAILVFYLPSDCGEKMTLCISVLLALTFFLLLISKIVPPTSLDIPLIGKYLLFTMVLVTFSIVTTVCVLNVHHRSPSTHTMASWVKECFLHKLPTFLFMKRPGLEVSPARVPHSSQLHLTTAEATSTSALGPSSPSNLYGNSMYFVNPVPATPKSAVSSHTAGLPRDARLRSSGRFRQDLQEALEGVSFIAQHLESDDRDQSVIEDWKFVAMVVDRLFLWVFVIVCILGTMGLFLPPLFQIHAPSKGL
# Experimental: Additional experiments examined the effect of acute nicotine at a higher concentration (1 μM) on α4β4 receptors as well.
# T1 sequence (O70174 31-629): as the sequence (O70174 31-629) above
# T1 sequence (Q9ERK7 26-501): as the sequence (Q9ERK7 26-501) above
smiles,measurement,setting,value
"CN1CCCC1c1cccnc1 (stereo not drawn) [Nicotine, nicotine]",evoked currents as % of maximum currents induced by 500 μM nicotine,[1],0.44±0.07%
same,fraction of the total receptor population activated,[1],0.4%
same,TGN intensity,[2],no effect
same,effect on the average intensity of TGN bodies (in words),[2],did not affect
same,effect on the number of TGN bodies (in words),[2],increased
same,increase in the average number of TGN bodies per cell,[2],~2 fold
same,effect on peripheral ER area (in words),[3],increased
same,increase in the average ER area,[3],1.7 fold
same,increase in ERES fluorescence / formation of ERES,[4],~2 fold
same,reduction in the ratio of nuclear to whole cell ATF6-eGFP fluorescence,[5],~25%
same,"increase in the number of insertion events, α4β2 nAChRs",[6],~2 fold
same,"Fnic/F0 (SEP fluorescence, receptors in the membrane)",[7],65%+/−0.03
